Laboratory results reported in patent US20150119394A1, “Insulin-Like Growth Factor-1 Receptor Inhibitors” (Merck Sharp & Dohme Corp., priority 2012, published 2015).

Target: T1, intracellular kinase domain of human IGF-1R (GST fusion protein) (Homo sapiens, UniProt P08069)
T1 construct: IGFRK and IRK enzyme used for the assay was intracellular kinase domain of human IGF-1R; GST; made in house
Assay: In vitro IGF-1R kinase assay (HTRF)
Format: biochemical
Conditions: ATP 20 μM, IGFRK 0.25 nM
Description: The in vitro kinase assays using IGF-1R and IR kinase GST fusion proteins were conducted using a homogeneous time-resolved fluorescence (HTRF) format. Kinase reactions were carried out in a 384-well plate format in a final volume of 20 μL. The standard enzyme reaction buffer consisted of 50 mM Tris HCL (pH: 7.4), 1 mM EGTA, 10 mM MgCl2, 2 mM DTT, 0.01% Tween-20, IGF-1R/IR kinase enzyme, poly GT peptide substrate (Perkin Elmer [Ulight Glu-Tyr (4:1)]n) and ATP [concentration equivalent to Kmapp] […] Briefly, 2.5 μL enzyme and 2.5 μL inhibitor was preincubated for 10 minutes at 23° C. followed by the addition of 2.5 μL of poly GT substrate (final concentration of 50 nM). Reaction was initiated with the addition of 2.5 μL of ATP (final concentration of 20 μM for IGF-1R assay and 10 μM for IR assay). After 1 hour incubation at 23° C., the kinase reaction was stopped with the addition of 5 μL EDTA (final concentration of 10 mM in 20 μL). Europium cryptate—labeled antiphosphotyrosine antibody PY20 (5 μL) was added (final concentration of 2 nM) and the mixture was allowed to equilibrate for 1 hour at 23° C. followed by reading the plate in an Envision plate reader.
The intensity of light emission at 665 nm was directly proportional to the level of substrate phosphorylation. The IC50 values for inhibitors were determined by a four-parameter sigmoidal curve fit (Sigma plot or Graph pad).
IGFRK and IRK enzyme used for the assay was intracellular kinase domain of human IGF-1R and human IR cloned and expressed as GST fusion proteins using the baculovirus expression system and purified using glutathione—Sepharose column.

T1 sequence (P08069 999-1274 limits assumed): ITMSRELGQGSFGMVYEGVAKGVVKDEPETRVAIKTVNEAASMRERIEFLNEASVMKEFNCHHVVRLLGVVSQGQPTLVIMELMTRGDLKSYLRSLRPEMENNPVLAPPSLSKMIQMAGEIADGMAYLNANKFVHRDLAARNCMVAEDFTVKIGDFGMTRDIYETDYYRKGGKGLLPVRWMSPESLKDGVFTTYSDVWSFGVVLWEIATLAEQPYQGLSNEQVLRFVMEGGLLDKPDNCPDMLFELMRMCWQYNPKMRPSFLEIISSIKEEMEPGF

Row | SMILES | IC50 [nM]
1 | Cc1cc(OC[C@@H]2CN(S(=O)(=O)c3c(C(N)=O)[nH]c4ccc(Cl)cc34)CCO2)ccc1-c1cccnc1 [Compound 66, (S)-5-chloro-3-((2-((3-methyl-4-(pyridin-3-yl)phenoxy)methyl)morpholino)sulfonyl)-1H-indole-2-carboxamide] | 18.7
2 | NC(=O)c1[nH]c2ccc(Cl)cc2c1S(=O)(=O)N1CCO[C@H](COc2ccc(-c3ccccc3)nc2)C1 [Compound 79, (S)-5-chloro-3-((2-(((6-phenylpyridin-3-yl)oxy)methyl)morpholino)sulfonyl)-1H-indole-2-carboxamide] | 25.4
3 | Cn1nc(-c2ccccc2)cc1OC[C@@H]1CN(S(=O)(=O)c2c(C(N)=O)[nH]c3ccc(Cl)cc23)CCO1 [Compound 92, (S)-5-chloro-3-((2-(((1-methyl-3-phenyl-1H-pyrazol-5-yl)oxy)methyl)morpholino)sulfonyl)-1H-indole-2-carboxamide] | > 100
4 | Cc1ccc(OC[C@@H]2CN(S(=O)(=O)c3c(C(N)=O)[nH]c4ccc(Cl)cc34)CCO2)cc1-c1ccccc1F [Compound 21, (S)-5-chloro-3-((2-(((2′-fluoro-6-methyl-[1,1′-biphenyl]-3-yl)oxy)methyl)morpholino)sulfonyl)-1H-indole-2-carboxamide] | 184
5 | NC(=O)c1[nH]c2ccc(Cl)cc2c1S(=O)(=O)N1CCO[C@H](COc2ccc(-c3ccccc3)cc2)C1 [Compound 33, (S)-3-((2-(([1,1′-biphenyl]-4-yloxy)methyl)morpholino)sulfonyl)-5-chloro-1H-indole-2-carboxamide] | 30.2
6 | NC(=O)c1[nH]c2ccc(Cl)cc2c1S(=O)(=O)N1CCO[C@H](COc2ccc(-c3ccccc3)cn2)C1 [Compound 81, (S)-5-chloro-3-((2-(((5-phenylpyridin-2-yl)oxy)methyl)morpholino)sulfonyl)-1H-indole-2-carboxamide] | > 1000
7 | NC(=O)c1[nH]c2ccc(Cl)cc2c1S(=O)(=O)N1CCO[C@H](COc2cnc(-c3ccccc3)cn2)C1 [Compound 77, (S)-5-chloro-3-((2-(((5-phenylpyrazin-2-yl)oxy)methyl)morpholino)sulfonyl)-1H-indole-2-carboxamide] | 204
8 | NC(=O)c1[nH]c2ccc(Cl)cc2c1S(=O)(=O)N1CCO[C@H](COc2ccccc2-c2ccccc2)C1 [Compound 54, (S)-3-((2-(([1,1′-biphenyl]-2-yloxy)methyl)morpholino)sulfonyl)-5-chloro-1H-indole-2-carboxamide] | > 1000
9 | COc1ccc(-c2cc(OC[C@@H]3CN(S(=O)(=O)c4c(C(N)=O)[nH]c5ccc(Cl)cc45)CCO3)ccc2C)cn1 [Compound 25, (S)-5-chloro-3-((2-((3-(6-methoxypyridin-3-yl)-4-methylphenoxy)methyl)morpholino)sulfonyl)-1H-indole-2-carboxamide] | 53.3

The next compounds have a lower IC50 than those just listed; values first:

Row | IC50 [nM] | SMILES
10 | 13.3 | Cc1cc(OC[C@@H]2CN(S(=O)(=O)c3c(C(N)=O)[nH]c4ccc(Cl)cc34)CCO2)ccc1-c1ccnc(F)c1 [Compound 72, (S)-5-chloro-3-((2-((4-(2-fluoropyridin-4-yl)-3-methylphenoxy)methyl)morpholino)sulfonyl)-1H-indole-2-carboxamide]
11 | 8.5 | NC(=O)c1[nH]c2ccc(Cl)cc2c1S(=O)(=O)N1CCO[C@H](COc2cccc(-c3ccncc3)c2)C1 [Compound 2, (S)-5-chloro-3-((2-((3-(pyridin-4-yl)phenoxy)methyl)morpholino)sulfonyl)-1H-indole-2-carboxamide]
12 | 15.4 | NC(=O)c1[nH]c2ccc(Cl)cc2c1S(=O)(=O)N1CCO[C@H](COc2cccc(-c3ccc(F)cc3)c2)C1 [Compound 11, (S)-5-chloro-3-((2-(((4′-fluoro-[1,1′-biphenyl]-3-yl)oxy)methyl)morpholino)sulfonyl)-1H-indole-2-carboxamide]
13 | 4 | NC(=O)c1[nH]c2ccc(Cl)cc2c1S(=O)(=O)N1CCO[C@H](COc2ccc(-c3cncnc3)cc2)C1 [Compound 48, (S)-5-chloro-3-((2-((4-(pyrimidin-5-yl)phenoxy)methyl)morpholino)sulfonyl)-1H-indole-2-carboxamide]
